Measured values from patent US20240390464A1, “Treatment of Adults With Overweight or Obesity With or Without Weight-Related Comorbidities” (Carmot Therapeutics Inc., priority 2023, published 2024).
Read-outs that look alike come from different tables or passages of the source. Numbered stars: 1 amine (or outer) side, 2 acyl side, 3 side chain; on linkers, the order of the positions; unused ones are H or OH. Square brackets hold non-standard residues; d marks the D form. Side chains are listed from the residue outwards. Peptide text beside a SMILES is read from it. * marks the point of attachment. Isobutyryl(2-(3-CN-5-F-Ph)) = CC(C)(C(=O)*)c1cc(F)cc(C#N)c1; C20 diacid = O=C(O)CCCCCCCCCCCCCCCCCCC(=O)*; γGlu = O=C(O)[C@H](CCC(=O)[*:2])N[*:1]; AEEA = NCCOCCOCC(=O)O; Aib = CC(C)(N)C(=O)O; βAla = NCCC(=O)O

What was measured:
[1] = Phase 1 MD Cohorts 11 and 12: pharmacokinetics; conditions: human, in vivo, SC QW
From the text: The secondary objectives of this study are: • To evaluate the pharmacokinetics of CT-388 across 12 consecutive weekly doses for Cohorts 11 and 14 (and additionally, up to 24 weeks for Cohorts 12 and 13); and • To evaluate the PD effect of CT-388 across 12 consecutive weekly doses for Cohorts 11 and 14 (and additionally up to 24 weeks for Cohorts 12 and 13) on body weight and glucose homeostasis in both the fasted state and in the setting of an OGTT in participants with or without T2DM. […] Cohorts 11 and 12 included participants who were obese without T2DM and cohort 13 included patients who were obese with T2DM. Endpoints of this study were safety, including TEAEs, labs, vitals and ECGs; PK, including CT-388 PK concentrations and parameters; and key PD endpoints, including week 12 ([…]) and week 24 ([…]): • a. body weight: % change; absolute change; • b. change in HbA1c, fasting glucose, fasting insulin, HOMA-IR; and • c. waist and hip circumference.

[2] = chronic toxicology, repeat dosing 26 weeks; assay type: in vivo; conditions: rats
From the text: (§1) Thus, CT-388 can be a potent drug that induces significant weight loss and helps achieve optimal glycemic control, with acceptable tolerability, in overweight or obese adults with or without T2DM or other weight-related comorbidities. CT-388 can potentially be used as a non-invasive alternative to bariatric surgery for weight management.

[3] = chronic toxicology, repeat dosing 39 weeks; assay type: in vivo; conditions: monkeys
From the text: as §1

[4] = Phase 1 SAD Cohorts 1-5: pharmacokinetics; conditions: human, in vivo; for Vd/F: read-out: Vz/F
Procedure: The secondary objectives are: • To evaluate the pharmacokinetics of single-ascending doses of CT-388 in otherwise healthy overweight and obese adult participants; and • To evaluate the pharmacodynamic (PD) effect of a single dose of CT-388 on body weight and glucose homeostasis in both the fasted state and in the setting of a mixed meal tolerance test (MMTT) challenge in otherwise healthy overweight and obese adult participants.
• Cohort 1: One dose containing 0.5 mg of CT-388 or matched placebo administered subcutaneously in the abdomen • Cohort 2: One dose containing 2.0 mg of CT-388 or matched placebo administered subcutaneously in the abdomen • Cohort 3: One dose containing 5.0 mg of CT-388 or matched placebo administered subcutaneously in the abdomen • Cohort 4: One dose containing 7.5 mg of CT-388 or matched placebo administered subcutaneously in the abdomen • Cohort 5: One dose containing 6.0 mg of CT-388 or matched placebo administered subcutaneously in the abdomen
Time-concentration profiles following a single dose SC administration of CT-388 to participants in Cohort 1 (0.5 mg), Cohort 2 (2 mg), Cohort 3 (5 mg), Cohort 4 (7.5 mg) and Cohort 5 (6 mg) are shown in Table 8 below.

[5] = Cohort 1, single SC dose 0.5 mg, mean ± standard deviation
[6] = Cohort 2, single SC dose 2 mg, mean ± standard deviation
[7] = Cohort 3, single SC dose 5 mg, mean ± standard deviation
[8] = Cohort 4, single SC dose 7.5 mg, mean ± standard deviation
[9] = Cohort 5, single SC dose 6 mg, mean ± standard deviation

In the case of `CC[C@H](C)[C@H](NC(=O)[C@H](CC(C)C)NC(=O)[C@H](Cc1c[nH]c2ccccc12)NC(=O)[C@H](CCC(N)=O)NC(=O)[C@@H](NC(=O)[C@H](Cc1ccccc1)NC(=O)[C@H](C)NC(=O)[C@H](CCCCNC(=O)COCCOCCNC(=O)COCCOCCNC(=O)CC[C@H](NC(=O)CCCCCCCCCCCCCCCCCCC(=O)O)C(=O)O)NC(=O)[C@H](CCC(N)=O)NC(=O)[C@H](C)NC(=O)[C@@H](NC(=O)[C@H](CCCCN)NC(=O)[C@H](CC(=O)O)NC(=O)[C@H](CC(C)C)NC(=O)C(C)(C)NC(=O)[C@@H](NC(=O)[C@H](CO)NC(=O)[C@H](Cc1ccc(O)cc1)NC(=O)[C@H](CC(=O)O)NC(=O)[C@H](CO)NC(=O)[C@@H](NC(=O)[C@H](Cc1ccccc1)NC(=O)[C@@H](NC(=O)CNC(=O)[C@H](CCC(=O)O)NC(=O)CCNC(=O)C(C)(C)c1cc(F)cc(C#N)c1)[C@@H](C)O)[C@@H](C)O)[C@@H](C)CC)[C@@H](C)CC)C(C)C)C(=O)N[C@@H](C)C(=O)NCC(=O)NCC(=O)N1CCC[C@H]1C(=O)N[C@@H](CO)C(=O)N[C@@H](CO)C(=O)NCC(=O)N[C@@H](C)C(=O)N1CCC[C@H]1C(=O)N1CCC[C@H]1C(=O)N1CCC[C@H]1C(=O)N[C@@H](CO)C(N)=O` [CT-388] ({Isobutyryl(2-(3-CN-5-F-Ph))-βAla}-EGTFTSDYSI[Aib]LDKIAQK([AEEA-AEEA-γGlu-C20 diacid])AFVQWLIAGGPSSGAPPPS-NH2), the half-life [1] is reported as about 150 h, the “tolerated dosing exceeds the pharmacologically active dose” value ([2]; 26-weeks) is reported as 100 fold and the “tolerability, chronic toxicology” value ([2]; repeat dosing over 26-weeks) is reported as “well tolerated”. For the same molecule, the “tolerated dosing exceeds the pharmacologically active dose” value ([3]; 39-weeks) was 100 fold, the “tolerability, chronic toxicology” value ([3]; repeat dosing over 39-weeks) was “well tolerated” and the AUC(0-inf) [4, 5] was 12900 ± 1090 ng·h/mL. It also gave a CL/F [4, 5] of 0.65 mL/min, a Cmax [4, 5] of 52.4 ± 10 ng/mL and an MRT last [4, 5] of 128 ± 8.2 h. For the same molecule, the Vd/F [4, 5] was 5.8 ± 0.7 L, the half-life ([4]; Cohort 1, single SC dose 0.5 mg, range of minimum to maximum, read-out: t1/2 range) was 91.9 to 171 h and the AUC(0-inf) [4, 6] was 47400 ± 10600 ng·h/mL. The CL/F [4, 6] was 0.733 mL/min, the Cmax [4, 6] was 216 ± 51.4 ng/mL and the MRT last [4, 6] was 122 ± 5.6 h. The Vd/F [4, 6] was 7.7 ± 1.8 L, the half-life ([4]; Cohort 2, single SC dose 2 mg, range of minimum to maximum, read-out: t1/2 range) was 108 to 142 h and the CL/F ([4]; Cohort 3, single SC dose 5 mg, mean) was 0.64 mL/min. For the same molecule, the AUC(0-inf) [4, 7] was 140000 ± 41700 ng·h/mL, the Cmax [4, 7] was 831 ± 263 ng/mL and the MRT last [4, 7] was 114 ± 2.3 h. For the same molecule, the Vd/F [4, 7] was 6.8 ± 2.1 L, the half-life ([4]; Cohort 3, single SC dose 5 mg, range of minimum to maximum, read-out: t1/2 range) was 108 to 146 h and the CL/F ([4]; Cohort 4, single SC dose 7.5 mg, mean) was 0.547 mL/min. For the same molecule, the AUC(0-inf) [4, 8] was 235000 ± 39000 ng·h/mL, the Cmax [4, 8] was 1160 ± 110 ng/mL and the MRT last [4, 8] was 119 ± 5.3 h. For the same molecule, the Vd/F [4, 8] was 6.6 ± 1.3 L, the half-life ([4]; Cohort 4, single SC dose 7.5 mg, range of minimum to maximum, read-out: t1/2 range) was 117 to 151 h and the AUC(0-inf) [4, 9] was 100000 ± 15000 ng·h/mL. For the same molecule, the CL/F [4, 9] was 0.99 mL/min, the Cmax [4, 9] was 552 ± 80.1 ng/mL and the MRT last [4, 9] was 122 ± 9.6 h. It also gave a Vd/F [4, 9] of 11 ± 1.2 L, a half-life ([4]; Cohort 5, single SC dose 6 mg, range of minimum to maximum, read-out: t1/2 range) of 101 to 141 h and a Tmax ([4]; SAD Cohorts 1-5, single SC dose, all except two individual cases) of over 24 h. For the same molecule, the half-life ([4]; SAD Cohorts 1-5, single SC dose, read-out: t1/2 (median) (converted)) was about 120 h.
